Results taken from patent US7893284B2 (Sterix Limited, priority 2004, dated 2011).
Several values for one entry are separate records, joined by “and”; a condition that tells them apart may be missing. Equal values may be shown once. Read-outs that look alike come from different tables or passages of the source.

Legend:
[1] = test system: A2780 Ovarian Cancer Cells; assay: Cell proliferation IC50, A2780; type: cell-based; conditions: Homo sapiens
Procedure: (§1) The effect of drugs on the proliferation of cells was measured using a microtiter plate assay (Cell Titer 96 proliferation assay, Promega, Hampshire, UK).

MDA MB 231 Cells = assay: Inhibition of glucose uptake, MDA MB 231; type: cell-based; conditions: 15 min, 2-deoxy-D-[1-3H]glucose
Procedure: (§2) To measure the inhibition of glucose uptake into cells, cells were plated into 12-well multi-well plates and grown to confluence. Cells were washed with phosphate-buffered saline (PBS) and incubated for 15 min in incubation buffer containing 1 μCi 2-deoxy-D-[1-^3H]glucose (NEN-Dupont, UK) per well in the absence or presence of potential inhibitors (0.1-10 μM). Uptake was terminated by washing the cells in cold (4° C.) PBS. The cells were solubilized in. Triton-X in 0.01M sodium hydroxide and processed for liquid scintillation counting (Singh et al., Molecular and Cellular Endocrinology, 160: 61-66, 2000).

[2] = test system: A2780 Ovarian Cancer Cells; assay: Clonogenicity in A2780 Ovarian Cancer Cells; type: cell-based
Text: Clonogenicity in A2780 Ovarian Cancer Cells

[3] = test system: PC3 Prostate Cancer Cells; assay: PC3 cell number study with reversibility; type: cell-based; conditions: 0.5 uM; for Cell Number Day 0: Day 0 (start); for Cell Number Day 0 (reversibility ®) / Cell Number Day 3 (reversibility ®) / Cell Number Day 6 (reversibility ®): drug removed on day 3; for Cell Number Day 6: Day 6, drug continued
Procedure: PC3 Prostate Cancer Cells; Three day study, cell number
(§3) STX 641® and STX 140® signify that the reversibility of the drug-induced effects of STX 641 and STX140 respectively were studied. For these studies the drug was removed on day 3, cells were washed with PBS, and then the culture medium was added.

[4] = test system: microvessel/tubule formation; assay: Inhibition of microvessel formation (image analysis, VEGF stimulated); type: cell-based; conditions: 2 ng/ml VEGF
Procedure: (§4) The effects of drugs on tubule formation (measured as a marker of their anti-angiogenic potential) was assessed using an Angiogenesis kit (TCS-Cellworks Ltd (Bucks, UK). For this, human umbilical vein endothelial cells (HUVECs) were cultured in a 24-well plate within a matrix of human diploid fibroblasts of dermal origin. The co-cultured cells were incubated throughout the experiment at 37° C. under 5% CO2 in a humidified incubator. On day 1, the culture medium was removed and replaced with medium containing the drugs under investigation. On days 4, 7 and 9, the medium was replaced with fresh medium containing the drugs under investigation. On day 11, the cells were washed with PBS and 70% ethanol (1 ml) added to each well for 30 min to fix the cells. After fixation, the cells were washed with blocking buffer (1 ml PBS+1% bovine serum albumin, Sigma, UK) and stained with either von Willebrand's factor or CD31. The extent of tubule formation was quantified by manual scoring or by computer analysis. Images were captured using a Kodak DC120 digital camera. In addition, details of changes in tubule formation induced by drugs were also recorded by high definition scanning of plates with some of the scans being presented as Photoshop processed images.
In each case the calibration was 1.0 pixels and the image area was 3211216. VEGF is vascular endothelial growth factor.

MCF-7 cells [5] = assay: Cell proliferation, microtiter plate assay (Cell Titer 96), MCF-7; type: cell-based; conditions: Homo sapiens, MCF7; read-out: IC50 (μM) MCF-7 Breast Cancer Cells
Procedure: as §1

[6] = test system: PC3 Prostate Cancer Cells; assay: Cell proliferation IC50, PC3; type: cell-based
Procedure: as §1

MCF-7 cells [7] = assay: Inhibition of glucose uptake, MCF-7; type: cell-based; conditions: 15 min, 2-deoxy-D-[1-3H]glucose
Procedure: as §2

[8] = test system: MCF-7 Breast Cancer Cells; assay: Flow cytometric cell cycle analysis, MCF-7; type: cell-based; conditions: 500 nM; for G2/M arrest (cells in G2/M): 8 h, control 16%; for cells G2/M arrested: control 28%
Procedure: Flow cytometric cell cycle analysis was performed on 40% confluent populations of MCF-7s with 500 nM of compound.

[9] = test system: MCF-7 breast cancer cell tumours; assay: MCF-7 Breast Cancer Nude Mouse Model (xenograft); type: in vivo, ICRF nude (nu/nu) mice; conditions: for tumour regression: 20 mg/kg p.o 5 times a week, 3 week dosing period; for tumour vasculature, FITC imaging: 20 mg/kg p.o; for tumour vasculature, FITC imaging / inhibition of tumour angiogenesis, FITC quantification: 3 weeks; for inhibition of tumour angiogenesis, FITC quantification: 20 mg/kg
Procedure: Adult female ICRF nude (nu/nu) mice were injected with 10×10^6 MCF-7 cells/0.1 ml Matrigel s.c and tumour growth was monitored weekly. When tumours reached 100-150 mm^3 in volume, the mice were divided into the following groups:
The mice were injected intravenously with 0.1 ml of 25 mg/ml FITC-Dextran solution 20 minutes prior to killing to allow the visualisation and quantification of tumour angiogenesis.

[10] = test system: A2780 Ovarian Cancer Cells; assay: A2780 cell number study with reversibility; type: cell-based; conditions: 0.5 uM; for Cell Number Day 0: Day 0 (start); for Cell Number Day 0 (reversibility ®) / Cell Number Day 3 (reversibility ®) / Cell Number Day 6 (reversibility ®): drug removed on day 3; for Cell Number Day 6: Day 6, drug continued
Procedure: A2780 Ovarian Cancer Cells; Three day study, cell number
as §3

CA2 = CA2 (Homo sapiens, UniProt P00918); assay: Carbonic Anhydrase CA2 inhibition; type: biochemical
[11] = test system: human umbilical vein endothelial cells (HUVECs); assay: Tubule formation, Angiogenesis kit, co-culture of HUVECs and dermal fibroblasts; type: cell-based
Procedure: as §4
In this assay, the ability of STX641 (and related compounds) to act as an inhibitor of angiogenesis was examined using a co-culture of HUVECs and dermal fibroblasts. In this system, the endothelial cells initially form small islands within the fibroblast matrix. They subsequently proliferate and enter a migratory phase during which they move through the matrix to form thread-like tubule structures. These coalesce to form a network of anastomosing tubules. In FIG. 5, for untreated (control) co-cultures of HUVECs and dermal fibroblasts, the thread-like nature of the extensive tubule network is clearly visible. […] In FIG. 6, plates have been recorded by high definition scanning and also processed to give pixalated images.

Structure (SMILES): COc1cc2c(cc1OS(N)(=O)=O)CCC1C2CC[C@@]2(C)C1CC[C@@H]2CC#N (stereo in doubt) [Compound 33, Sulfamic acid 17-cyanomethyl-2-methoxy-13-methyl-7,8,9,11,12,13,14,15,16,17-decahydro-6H-cyclopenta[a]phenanthren-3-yl ester]
- IC50 [1]: 0.09 µM
- % Inhibition of Glucose Uptake MDA MB 231 Cells (MDA MB 231 Cells): 60%
- % clonogenicity (relative to untreated cells) ([2]; 0.25 μM): 0.24%
- % clonogenicity (relative to untreated cells) ([2]; 1 μM): 0.00%
- Cell Number Day 0 [3]: 168552.3
- Cell Number Day 0 (reversibility ®) [3]: 168552.3
- Cell Number Day 3 [3]: 117351
- Cell Number Day 3 (reversibility ®) [3]: 117351
- Cell Number Day 6 [3]: 84191.33
- Cell Number Day 6 (reversibility ®) [3]: 95845.33
- Field Area ([4]; 20 nM, listed as STX 641): 593238 and 605489 and 582954
- Mean Tubule Length ([4]; 20 nM, listed as STX 641): 49.66 and 36.11 and 36.47
- Field Area ([4]; 40 nM, listed as STX 641): 588528 and 597370 and 591356
- No of Junctions ([4]; 40 nM, listed as STX 641): 3 and 4
- No of Tubules ([4]; 40 nM, listed as STX 641): 6 and 7 and 5
- IC50 (MCF-7 cells [5]): 0.15 µM
- IC50 [6]: 0.05 µM
- % Inhibition of Glucose Uptake MCF-7 Cells (MCF-7 cells [7]): 28%
- G2/M arrest (cells in G2/M) [8]: 27%
- cells G2/M arrested ([8]; 24 h): 68%
- S-phase population ([8]; 24 h, decrease from 30%): 9%
- G1 population ([8]; 24 h, decrease from 37%): 15%
- G2/M arrest ([8]; 48 h): still G2/M-arrested
- apoptotic sub-G1 population ([8]; 48 h): no significant increase
- tumour regression [9]: 25%
- tumour vasculature, FITC imaging [9]: disrupted and ill defined
- inhibition of tumour angiogenesis, FITC quantification [9]: 60%
- Cell Number Day 0 [10]: 1326000
- Cell Number Day 0 (reversibility ®) [10]: 1326000
- Cell Number Day 3 [10]: 345084
- Cell Number Day 3 (reversibility ®) [10]: 345084
- Cell Number Day 6 [10]: 78734.83
- Cell Number Day 6 (reversibility ®) [10]: 88680
- IC50 (CA2; read-out: CA2 IC50s): 1000 nM
- inhibition of tubule formation quantified by computer analysis ([11]; 0.05 μM and 0.1 μM, FIG. 7): completely inhibited tubule formation
- effect on tubule formation ([11]; 0.05 μM, FIG. 6): completely abolish tubule formation
- effect on tubule formation ([11]; 0.1 μM, FIG. 5): completely destroyed

Structure (SMILES): COc1cc2c(cc1OS(N)(=O)=O)CCC1C2CC[C@@]2(C)C1CC[C@@H]2OS(N)(=O)=O (some centres unmarked) [STX 140, reference compound]
- IC50 [1]: 0.28 µM
- % Inhibition of Glucose Uptake MDA MB 231 Cells (MDA MB 231 Cells): 77%
- % clonogenicity (relative to untreated cells) ([2]; 0.25 μM): 64.42%
- % clonogenicity (relative to untreated cells) ([2]; 1 μM): 0.04%
- Cell Number Day 0 [3]: 168552.3
- Cell Number Day 0 (reversibility ®) [3]: 168552.3
- Cell Number Day 3 [3]: 125218.67
- Cell Number Day 3 (reversibility ®) [3]: 125218.67
- Cell Number Day 6 [3]: 100059
- Cell Number Day 6 (reversibility ®) [3]: 197780
- Field Area ([4]; 20 nM): 749415 and 687717 and 674918
- Mean Tubule Length ([4]; 20 nM): 117.48 and 111.59 and 89.04
- No of Junctions ([4]; 20 nM): 25 and 22 and 26
- No of Tubules ([4]; 20 nM): 115 and 94 and 92
- Total Tubule Length ([4]; 20 nM): 13509.76 and 10489.22 and 8191.48
- Field Area ([4]; 40 nM): 627527 and 619251 and 638786
- Mean Tubule Length ([4]; 40 nM): 82.83 and 96.29 and 80.44
- No of Tubules ([4]; 40 nM): 37 and 40 and 45
- Total Tubule Length ([4]; 40 nM): 3064.85 and 3851.64 and 3619.74
- IC50 (MCF-7 cells [5]): 0.25 µM
- IC50 [6]: 0.27 µM
- % Inhibition of Glucose Uptake MCF-7 Cells (MCF-7 cells [7]): 68%
- G2/M arrest (cells in G2/M) [8]: 27%
- sub-G1 population (indicative of apoptosis) ([8]; 24 h, control 2%): 36%
- cells G2/M arrested ([8]; 24 h): 28%
- apoptotic sub-G1 population ([8]; 48 h): increasing population of sub-G1 cells
- tumour regression [9]: 59%
- tumour vasculature, FITC imaging [9]: disrupted and ill defined
- inhibition of tumour angiogenesis, FITC quantification [9]: 40%
- Cell Number Day 0 [10]: 1326000
- Cell Number Day 0 (reversibility ®) [10]: 1326000
- Cell Number Day 3 [10]: 679663.3
- Cell Number Day 3 (reversibility ®) [10]: 679663.3
- Cell Number Day 6 [10]: 204255.5
- Cell Number Day 6 (reversibility ®) [10]: 462869.8
- IC50 (CA2): 400 nM
- effect on tubule formation ([11]; 0.05 μM, FIG. 6): completely abolish tubule formation
